Structures are written as SMILES.

As usually defined, the IC50 is the point on the concentration scale where inhibition reaches its midpoint.

This experiment has as its target T1, Recombinant human EP300 containing the bromodomain (EP300-BD (1040-1161)) (Homo sapiens, UniProt Q09472).
T1 construct: Recombinant human EP300 bromodomain (EP300-BD (1040-1161)); made in house; host or cells: E. coli BL21-CodonPlus (DE3), modified pET vector
T1 sequence (Q09472 1040-1161): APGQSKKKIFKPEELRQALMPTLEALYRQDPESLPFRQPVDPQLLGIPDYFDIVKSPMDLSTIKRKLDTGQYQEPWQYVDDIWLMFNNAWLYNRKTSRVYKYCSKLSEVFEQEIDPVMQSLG
As to the kind of experiment: EP300 Alphascreen binding assay. Here is the method: EP300 Alphascreen Binding Assay
Binding of compounds of Formula (I) with EP300 was assessed using Alphascreen™ binding assay. The inhibition of the interaction between the EP300 bromodomain and its acetylated target protein was measured quantitatively using recombinant EP300 protein, an acetylated Histone 3 peptide and AlphaScreen™ technology. In absence of inhibition of the EP300 protein bound to AlphaScreen™ nickel chelate acceptor beads can interact with the acetylated Histone 3 peptide which is immobilized by the AlphaScreen™ Streptavidin coated beads. This interaction brings donor and acceptor beads in proximity. The close proximity allows the singlet oxygen produced by laser excitation of the donor beads to reach the acceptor beads and generate a luminescence signal. EP300 inhibitors result in a decrease in the proximity signal through an inhibition of the EP300—acetylated peptide interaction.
Recombinant human EP300 containing the bromodomain (EP300-BD (1040-1161)) was prepared and purified as described in protein expression and purification session. The peptide is human Histone H345-64K56Ac-Biotin (Anaspec CA, USA).
Protocol for EP300 assay: All components were prepared in buffer composed of 50 mM HEPES pH 7.5, 50 mM NaCl, 0.01% BSA, 0.01% Triton X-100, 2 mM DTT. Test compounds and DMSO vehicle were diluted 1:50 in buffer and a 4 μL volume is transferred to an Alphaplate. 5.5 μL of EP300 protein and 5.5 μL of peptide were added to wells containing 4 μL of various concentrations of test compounds of Formula (I) or DMSO vehicle in an Alphaplate (PerkinElmer GA, USA) and incubated for 1 hour at room temperature. 5 μL donor and acceptor bead mixture was then added with final concentrations of 7.5 μg/ml. 60 minutes after bead addition, Alpha signal is read on the Envision spectrometer (λEx 680 nm, λEm 520-620 nm). Final concentrations of bromodomain proteins and peptide are as shown below.
All data were normalized to the mean of 16 high and 16 low control wells on each plate. A four parameter curve fit of the following formula was then applied: Y=A+((B−A)/(1+((C/x)^D))) Where ‘A’ is the minimum, ‘B’ is the maximum, ‘C’ is the IC50 and ‘D’ is the Hill slope. Protein Expression and Purification
Recombinant human EP300 bromodomain (EP300-BD (1040-1161)) was expressed in E. coli cells (in a modified pET vector) with an N-terminal six-His tag and purified using a combination of both IMAC (Ni-affinity) and size exclusion chromatography steps.
Recombinant EP300 protein was expressed using the E. coli strain BL21-CodonPlus (DE3) (Agilent Technologies CA, USA). Cells were grown in Terrific Broth (TB) media to an OD600 of 0.7 at 37° C. at which temperature was reduced to 18° C., protein was induced with 1.0 mM isopropyl-β-D-thiogalactopyranoside (“IPTG”) for 20 hours and harvested by centrifugation at 8500×g for 20 minutes. Cells were re-suspended in 0.1M K2PO4 pH 8.0, 250 mM NaCl, 10% Glycerol, 0.75% NP-40, 25 mM Imidazole, with 0.2 mg/ml Lysozyme, 0.2 mM phenylmethanesulfonyl fluoride (“PMSF”), 25 μg/ml DNase I, incubated on ice for 30 minutes and lysed with a cell disruptor (MicroFluidics MA, USA). The lysate was clarified by centrifugation at 20,000×g for 1 hour. The protein was captured with Ni-NTA resin (Life Technologies, USA). Contaminating proteins were washed off with 50 mM HEPES pH 7.5, 500 mM NaCl, and 5% Glycerol. Following 3× wash steps, protein was eluted step wise using 10, 25, 50, 100, 150, and 250 mM Imidazole in 50 mM HEPES pH 7.5, 500 mM NaCl, and 5% glycerol. The protein was further purified using a size exclusion column (26/600 Superdex 200, GE Biosciences NJ, USA) in 10 mM HEPES pH 7.5, […].
Regarding `CCCOc1cc(C(=O)O)ccc1-c1cn([C@@H](C)c2ccccn2)c2ncc(-c3c(C)noc3C)cc12` [P-0113, (S)-4-(5-(3,5-dimethylisoxazol-4-yl)-1-(1-(pyridin-2-yl)ethyl)-1H-pyrrolo[2,3-b]pyridin-3-yl)-3-propoxybenzoic acid], the 50% inhibitory concentration (IC50) was in the range of 0.0001 to 1 µM. The same measure for `CCOc1cc(C(=O)O)ccc1-c1cn([C@@H](C)c2ccccn2)c2ncc(-c3c(C)noc3C)cc12` [P-0114, (S)-4-(5-(3,5-dimethylisoxazol-4-yl)-1-(1-(pyridin-2-yl)ethyl)-1H-pyrrolo[2,3-b]pyridin-3-yl)-3-ethoxybenzoic acid]: 0.0001 to 1 µM. With `Cc1noc(C)c1-c1cnc2c(c1)c(-c1ccc(C(=O)O)cc1OCC(F)(F)F)cn2[C@@H](C)c1ccccn1` [P-0115, (S)-4-(5-(3,5-dimethylisoxazol-4-yl)-1-(1-(pyridin-2-yl)ethyl)-1H-pyrrolo[2,3-b]pyridin-3-yl)-3-(2,2,2-trifluoroethoxy)benzoic acid] the figure was 0.0001 to 1 µM; with `Cc1noc(C)c1-c1cnc2c(c1)c(-c1ccc(C(=O)O)cc1C(F)(F)F)cn2[C@@H](C)c1ccccn1` [P-0116, (S)-4-(5-(3,5-dimethylisoxazol-4-yl)-1-(1-(pyridin-2-yl)ethyl)-1H-pyrrolo[2,3-b]pyridin-3-yl)-3-(trifluoromethyl)benzoic acid], 0.0001 to 1 µM.

`CCCOc1cc(C(=O)O)cc(OCCC)c1-c1cn([C@@H](C)c2ccccn2)c2ncc(-c3c(C)noc3C)cc12` [P-0117, (S)-4-(5-(3,5-dimethylisoxazol-4-yl)-1-(1-(pyridin-2-yl)ethyl)-1H-pyrrolo[2,3-b]pyridin-3-yl)-3,5-dipropoxybenzoic acid]: the half-inhibitory concentration (IC50) lay within 0.0001 to 1 µM. Turning to `Cc1noc(C)c1-c1cnc2c(c1)c(-c1c(OC(C)C)cc(C(=O)O)cc1OC(C)C)cn2[C@@H](C)c1ccccn1` [P-0118, (S)-4-(5-(3,5-dimethylisoxazol-4-yl)-1-(1-(pyridin-2-yl)ethyl)-1H-pyrrolo[2,3-b]pyridin-3-yl)-3,5-diisopropoxybenzoic acid], the IC50 was in the range of 0.0001 to 1 µM.

Consider `COc1cc(C(=O)O)cc(OC)c1-c1cn(C(C)c2ccccc2)c2cc(-c3c(C)noc3C)cnc12` (stereo not shown) [P-0119, 4-(6-(3,5-dimethylisoxazol-4-yl)-1-(1-phenylethyl)-1H-pyrrolo[3,2-b]pyridin-3-yl)-3,5-dimethoxybenzoic acid], for which the IC50 lay in the range of 0.0001 to 1 µM. With `Cc1noc(C)c1-c1cnc2c(-c3ccccc3C(=O)O)cn(C(C)c3ccccc3)c2c1` (stereo not shown) [P-0120, 2-(6-(3,5-dimethylisoxazol-4-yl)-1-(1-phenylethyl)-1H-pyrrolo[3,2-b]pyridin-3-yl)benzoic acid], the concentration for half-maximal inhibition (IC50) lay in the range of 0.0001 to 1 µM.

Turning to `Cc1noc(C)c1-c1cnc2c(C(=O)C3CCC3)cn(-c3c(Cl)cc(C(=O)O)cc3Cl)c2c1` [P-0121, 3,5-dichloro-4-(3-(cyclobutanecarbonyl)-6-(3,5-dimethylisoxazol-4-yl)-1H-pyrrolo[3,2-b]pyridin-1-yl)benzoic acid], the IC50 is 0.0001 to 1 µM. As to `Cc1noc(C)c1-c1cnc2c(c1)c(-c1cccc(C(=O)O)n1)cn2C(C)c1ccccn1` (stereo not shown) [P-0122, 6-(5-(3,5-dimethylisoxazol-4-yl)-1-(1-(pyridin-2-yl)ethyl)-1H-pyrrolo[2,3-b]pyridin-3-yl)picolinic acid], the IC50 lay within 1 to 8 µM. For `Cc1noc(C)c1-c1cnc2c(c1)c(-c1ccc(C(=O)O)cn1)cn2C(C)c1ccccn1` (stereo not shown) [P-0123, 6-(5-(3,5-dimethylisoxazol-4-yl)-1-(1-(pyridin-2-yl)ethyl)-1H-pyrrolo[2,3-b]pyridin-3-yl)nicotinic acid], the IC50 is 0.0001 to 1 µM. For the compound `Cc1noc(C)c1-c1cnc2c(c1)c(-c1cc(C(=O)O)ccn1)cn2C(C)c1ccccn1` (stereo not shown) [P-0124, 2-(5-(3,5-dimethylisoxazol-4-yl)-1-(1-(pyridin-2-yl)ethyl)-1H-pyrrolo[2,3-b]pyridin-3-yl)isonicotinic acid], the IC50 lay in the range of 0.0001 to 1 µM. On to `Cc1noc(C)c1-c1cnc2c(c1)c(-c1ccc(F)c(C(=O)O)c1F)cn2[C@@H](C)c1ccccn1` [P-0125, (S)-3-(5-(3,5-dimethylisoxazol-4-yl)-1-(1-(pyridin-2-yl)ethyl)-1H-pyrrolo[2,3-b]pyridin-3-yl)-2,6-difluorobenzoic acid], for which the IC50 lay in the range of 0.0001 to 1 µM. With `Cc1noc(C)c1-c1cnc2c(c1)c(-c1ccnc(C(=O)O)n1)cn2C(C)c1ccccn1` (stereo not shown) [P-0126, 4-(5-(3,5-dimethylisoxazol-4-yl)-1-(1-(pyridin-2-yl)ethyl)-1H-pyrrolo[2,3-b]pyridin-3-yl)pyrimidine-2-carboxylic acid] the figure was 0.0001 to 1 µM.

`CCCOc1cc(C(=O)O)cc(OCCC)c1-n1cc(CC2CCC2)c2ncc(-c3c(C)noc3C)cc21` [P-0127, 4-(3-(cyclobutylmethyl)-6-(3,5-dimethylisoxazol-4-yl)-1H-pyrrolo[3,2-b]pyridin-1-yl)-3,5-dipropoxybenzoic acid]: the half-maximal inhibitory concentration (IC50) fell in the range of 0.0001 to 1 µM.

With `Cc1noc(C)c1-c1cnc2c(Cc3cccc(Cl)c3)cn(-c3c(Cl)cc(C(=O)O)cc3Cl)c2c1` [P-0128, 3,5-dichloro-4-(3-(3-chlorobenzyl)-6-(3,5-dimethylisoxazol-4-yl)-1H-pyrrolo[3,2-b]pyridin-1-yl)benzoic acid], the IC50 was in the range of 0.0001 to 1 µM. The same measure for `Cc1noc(C)c1-c1cnc2c(C(=O)c3cccc(OC(F)F)c3)cn(-c3c(Cl)cc(C(=O)O)cc3Cl)c2c1` [P-0129, 3,5-dichloro-4-(3-(3-(difluoromethoxy)benzoyl)-6-(3,5-dimethylisoxazol-4-yl)-1H-pyrrolo[3,2-b]pyridin-1-yl)benzoic acid]: 0.0001 to 1 µM.

Consider `Cc1noc(C)c1-c1cnc2c(CC3CCC3)cn(-c3ccc([N+](=O)[O-])cc3F)c2c1` [P-0130, 4-(3-(cyclobutylmethyl)-1-(2-fluoro-4-nitrophenyl)-1H-pyrrolo[3,2-b]pyridin-6-yl)-3,5-dimethylisoxazole], for which the IC50 lay in the range of 8 to 1000 µM. The same measure for `Cc1noc(C)c1-c1cnc2c(Cc3ccccc3Cl)cn(-c3c(Cl)cc(C(=O)O)cc3Cl)c2c1` [P-0131, 3,5-dichloro-4-(3-(2-chlorobenzyl)-6-(3,5-dimethylisoxazol-4-yl)-1H-pyrrolo[3,2-b]pyridin-1-yl)benzoic acid]: 0.0001 to 1 µM; for `Cc1noc(C)c1-c1cnc2c(Cc3cccc(OCc4ccccc4)c3)cn(-c3c(Cl)cc(C(=O)O)cc3Cl)c2c1` [P-0132, 4-(3-(3-(benzyloxy)benzyl)-6-(3,5-dimethylisoxazol-4-yl)-1H-pyrrolo[3,2-b]pyridin-1-yl)-3,5-dichlorobenzoic acid]: 0.0001 to 1 µM. The same measure for `Cc1noc(C)c1-c1cnc2c(C(=O)c3cccc(OCc4ccccc4)c3)cn(-c3c(Cl)cc(C(=O)O)cc3Cl)c2c1` [P-0133, 4-(3-(3-(benzyloxy)benzoyl)-6-(3,5-dimethylisoxazol-4-yl)-1H-pyrrolo[3,2-b]pyridin-1-yl)-3,5-dichlorobenzoic acid]: 0.0001 to 1 µM; for `COc1ccc(-n2cc(CC3CCC3)c3ncc(-c4c(C)noc4C)cc32)cn1` [P-0134, 4-(3-(cyclobutylmethyl)-1-(6-methoxypyridin-3-yl)-1H-pyrrolo[3,2-b]pyridin-6-yl)-3,5-dimethylisoxazole]: 1 to 8 µM.

For the origin of these results see patent US11446287B2, “Compounds and methods for EP300 or CBP modulation and indications therefor” (Opna Immuno-Oncology SA, priority 2019, dated 2022).
